Where two headings read alike, the source gives them in different places.

This assay addresses recombinant eIF4E (Homo sapiens (Human), UniProt P06730). Nature of the assay: Fluorescence polarization competition assay for eIF4E binding potency. The procedure:
Compounds were screened for eIF4E binding potency using a fluorescence polarization competition assay. All binding reactions were performed in fluorescence polarization buffer (FPB) containing 20 mM Tris pH 7.5, 100 mM NaCl, 1 mM DTT, and 0.02% Tween-20. Final binding reactions contained 75 nM recombinant eIF4E (Beryllium, custom order), 20 nM EDA-m^7GDP-ATTO-550 (Jena Bioscience, NU-827-550) and varying concentrations of the inhibitory compound of interest. Final DMSO concentration in each reaction was 1%.
eIF4E protein was pre-incubated with EDA-m^7GDP-ATTO-550 in FPB at 2× concentrations for 5 minutes prior to the addition of compounds. Compounds (100×) were prepared using 3-fold serial dilutions in 100% DMSO, and subsequently diluted 1:50 in FPB to produce 2× stocks. 50 μl of 2× eIF4E/EDA-m^7GDP-ATTO-550 were transferred to the wells of a 96-well half-area black flat bottom polystyrene plate. 50 μl of 2× test compound were added, and binding reactions were allowed to equilibrate for 30 minutes at room temperature while protected from light. The fluorescent polarization signal was detected using a Victor 2 multi-label counter (Perkin Elmer) and the concentration necessary to achieve inhibition of eIF4E/EDA-m^7GDP-ATTO-550 binding by 50% (IC50) was calculated using data from an 8-point compound dilution series.
In Table 4A, IC50 values of less than 0.05 μM are labelled as “+++”, from 1 to 0.05 μM are labelled as “++”, and greater than 1 μM are labelled as “+”. ND=not determined.
On the technique in general: Polarisation of emitted light reports the rotation of a fluorescent probe.

Where [1] appears, read: fluorescence polarization competition, 75 nM recombinant eIF4E, 20 nM EDA-m7GDP-ATTO-550, IC50 class, read-out: elF4E FP.
[2] abbreviates: inhibition of eIF4E/EDA-m7GDP-ATTO-550 binding by 50%, Table 4B calculated values, read-out: IC50.
The mark [3] stands for this setting: inhibition of eIF4E/EDA-m7GDP-ATTO-550 binding, calculated IC50 values, Table 4B, read-out: IC50.

Chain of recombinant eIF4E (P06730 whole entry): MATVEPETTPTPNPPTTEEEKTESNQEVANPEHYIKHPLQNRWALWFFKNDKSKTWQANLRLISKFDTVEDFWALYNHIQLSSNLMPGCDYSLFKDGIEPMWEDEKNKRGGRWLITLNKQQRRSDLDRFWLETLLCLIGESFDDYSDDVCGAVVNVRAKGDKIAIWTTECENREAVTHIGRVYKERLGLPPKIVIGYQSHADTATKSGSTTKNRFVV

For `N#Cc1cc2c(=O)n(CCOc3ccc(Cl)cc3-c3cccc4c(C(=O)O)nccc34)cnc2cn1` [compound 118], the IC50 by setting is: under setting [1], 50 to 1000 nM; under setting [2], 416 nM.
On the same counts, the results for `CCc1cc(-c2cc(Cl)ccc2OCCn2c(C)nc3cc(C(F)(F)F)c(CN4CCN(C)CC4)c(C#N)c3c2=O)c2scc(C(=O)O)c2n1` [compound 637] are below 50 nM and 16.6 nM.
Consider `COCc1ncc2nc(C)n(CCOc3ccc(Cl)cc3-c3cc(C)nc4c(C(=O)O)csc34)c(=O)c2c1C#N` [compound 1066], for which the IC50 reads like this: under setting [1], 50 to 1000 nM; under setting [2], 57.4 nM.
Consider `Cc1nc2cc(C(F)(F)F)c(C3CCN(C)CC3)cc2c(=O)n1CCOc1ccc(Cl)cc1-c1ccnc2c(C(=O)O)csc12` [compound 881], for which the IC50 by setting is: under setting [1], below 50 nM; under setting [2], 20.4 nM.
With `Cc1cc(-c2cc(Cl)ccc2OCCn2c(C)nc3cc(C(F)(F)F)c(Cc4ncccc4F)c(C#N)c3c2=O)c2scc(C(=O)O)c2n1` [compound 473], the IC50 is below 50 nM under setting [1] and 14.5 nM under setting [2].
Turning to `Cc1nc2cnc(C#CCN(C)CC(F)(F)F)c(C#N)c2c(=O)n1CCOc1ccc(Cl)cc1-c1ccnc2c(C(=O)O)csc12` [compound 1327], under setting [3], the IC50 is 19.3 nM.
`N#Cc1cc2c(=O)n(CCOc3ccc(Cl)cc3-c3cccc(C(=O)O)c3)c(C(F)F)nc2cn1` [compound 1996]: the IC50 under setting [3] was 189 nM.
Regarding `Cc1cc(-c2cc(Cl)ccc2OCCn2c(C)nc3ccc(C(F)(F)CN(C)C)c(C#N)c3c2=O)c2scc(C(=O)O)c2n1` [compound 529], the IC50 runs as follows: under setting [1], below 50 nM; under setting [2], 5.78 nM.
`Cc1cc(-c2cc(Cl)ccc2OCCn2c(C)nc3cc(C(F)(F)F)c(CN4CCN(C(C)(C)C)CC4)c(C#N)c3c2=O)c2scc(C(=O)O)c2n1` [compound 738]: the IC50 reads like this: under setting [1], below 50 nM; under setting [2], 19.3 nM.
Consider `CC(=O)CN1CCC(N(C)c2ncc3nc(C)n(CC#Cc4ccc(Cl)cc4-c4ccnc5c(C(=O)O)csc45)c(=O)c3c2C#N)CC1` [compound 1519], for which the IC50 under setting [3] is 15.3 nM.
For the compound `CCN(c1ncc2nc(C)n(CC#Cc3ccc(Cl)cc3-c3ccnc4c(C(=O)NS(=O)(=O)c5cccnc5)csc34)c(=O)c2c1C#N)C1CCN(C2CC(F)(F)C2)CC1` [compound 1839], the IC50 under setting [3] was 34.5 nM.
Same read-out and setting: with `Cc1nc2cnc(N3CCN(CC(F)F)CC3)c(C#N)c2c(=O)n1CCOc1ccc(Cl)cc1-c1ccnc2c(C(=O)O)csc12` [compound 1303] the figure was 36.6 nM; with `Cc1nc2cnc(N(C)C3CCN(C4(C(F)F)COC4)CC3)c(C#N)c2c(=O)n1CC#Cc1ccc(Cl)cc1-c1ccnc2c(C(=O)NS(C)(=O)=O)csc12` [compound 1590], 36 nM.
For `Cc1nc2cc(C(F)(F)F)cc(C#N)c2c(=O)n1CCOc1ccc(Cl)cc1-c1csc2c(C(=O)O)cccc12` [compound 301], the IC50 runs as follows: under setting [1], 50 to 1000 nM; under setting [2], 57.6 nM.
With `Cc1cc(-c2cc(Cl)ccc2OCCn2c(C)nc3cc(C(F)(F)F)c(N4CCC(Cl)CC4)c(C#N)c3c2=O)c2scc(C(=O)O)c2n1` [compound 991], the IC50 is, setting by setting: under setting [1], below 50 nM; under setting [2], 12.1 nM.
For `Cc1nc2cnc(N3CCC(N(C)C4CC(F)(F)C4)CC3)c(C#N)c2c(=O)n1CC#Cc1ccc(Cl)cc1-c1ccnc2c(C(=O)O)csc12` [compound 1592], under setting [3], the IC50 was 20.3 nM.
`Cc1nc2cc(Cl)c(S(=O)(=O)N(C)C)c(C#N)c2c(=O)n1CCOc1ccc(Cl)cc1-c1ccnc2c(C(=O)O)csc12` [compound 247]: the IC50 runs as follows: under setting [1], 50 to 1000 nM; under setting [2], 61.1 nM.
As to `Cc1cc(-c2cc(Cl)ccc2OCCn2c(C)nc3cnc(C)c(C#N)c3c2=O)c2scc(C(=O)O)c2n1` [compound 419], the IC50 under setting [1] is below 50 nM.
For the compound `Cc1nc2cc(C(F)(F)F)c(CN(C)CC(F)F)c(C#N)c2c(=O)n1CCOc1ccc(Cl)cc1-c1ccnc2c(C(=O)O)csc12` [compound 525], the IC50 reads like this: under setting [1], below 50 nM; under setting [2], 34.7 nM.
For the compound `Cc1cc(-c2cc(Cl)ccc2OCCn2c(C)nc3c(C)nc(-c4c(C)cccc4C)c(C#N)c3c2=O)c2scc(C(=O)O)c2n1` [compound 872], the IC50 under setting [1] is below 50 nM.
As to `Cc1cc(-c2cc(Cl)ccc2OCCn2c(C)nc3ccc(CCN(C)C)c(C#N)c3c2=O)c2scc(C(=O)O)c2n1` [compound 584], the IC50 runs as follows: under setting [1], below 50 nM; under setting [2], 23.5 nM.
For the compound `Cc1nc2cnc(N(C)C3CCN(C4CC(F)(F)C4)CC3)c(C#N)c2c(=O)n1CC#Cc1ccc(Cl)cc1-c1ccnc2c(C(=O)NS(=O)(=O)Cc3ccccn3)csc12` [compound 1832], under setting [3], the IC50 is 20.5 nM.
For `Cc1nc2cc(C(F)(F)F)cc(C#N)c2c(=O)n1CCOc1ccc(Cl)cc1-c1cc(C#N)nc2c(C(=O)O)csc12` [compound 446], the IC50 under setting [1] fell in the range of 50 to 1000 nM.
Consider `Cc1nc2cc(C(F)(F)F)c(N3CCN(C)CC3)c(C#N)c2c(=O)n1CC#Cc1ccc(Cl)cc1-c1cccc(C(=O)O)c1` [compound 1154], for which the IC50 was below 50 nM under setting [1] and 14 nM under setting [2].
`Cc1nc2cnc(C3CCN(CC(F)(F)F)CC3)c(C#N)c2c(=O)n1CCOc1ccc(Cl)cc1-c1ccnc2c(C(=O)O)csc12` [compound 1117]: the IC50 is below 50 nM under setting [1] and 13.4 nM under setting [2].
For the compound `COc1ncc(-c2cc(Cl)ccc2OCCn2cnc3cnc(C#N)cc3c2=O)nc1C(=O)O` [compound 90], the IC50 is, setting by setting: under setting [1], above 1000 nM; under setting [2], 1230 nM.
Regarding `Cc1nc2cnc(N(C)C3CCN(C4COC4)CC3)c(C#N)c2c(=O)n1CC#Cc1ccc(Cl)cc1-c1ccnc2c(C(=O)O)csc12` [compound 1523], the IC50 under setting [3] was 13.1 nM.
As to `Cc1nc2cnc(CN)cc2c(=O)n1CCOc1ccc(Cl)cc1-c1cccc(C(=O)O)c1` [compound 1998], the IC50 under setting [3] is 409 nM.
As for `Cc1cc(-c2cc(Cl)ccc2OCCn2c(C)nc3cnc(N4CCC(O)C4)c(C#N)c3c2=O)c2sc(C)c(C(=O)O)c2n1` (centres unmarked) [compound 1236], the IC50 under setting [1] is below 50 nM and the IC50 under setting [3] is 33.9 nM.
Consider `CCC(F)(CC)CN1CCN(c2ncc3nc(C)n(CCOc4ccc(Cl)cc4-c4ccnc5c(C(=O)O)csc45)c(=O)c3c2C#N)CC1` [compound 1469], for which the IC50 under setting [3] is 23 nM.
With `Cc1nc2cnc(N(C)C3CCN(C(C)(C)C(F)(F)F)CC3)c(C#N)c2c(=O)n1CCOc1ccc(Cl)cc1-c1ccnc2c(C(=O)O)csc12` [compound 1514], the IC50 under setting [3] was 51.7 nM.
`COC1CN(c2c(Cl)cc3nc(C)n(CCOc4ccc(Cl)cc4-c4cc(C)nc5c(C(=O)O)csc45)c(=O)c3c2C#N)C1` [compound 701]: the IC50 by setting is: under setting [1], below 50 nM; under setting [2], 19.2 nM.
Take `O=C(O)c1cccc(-c2cc(Cl)ccc2OCCn2cnc3cccnc3c2=O)c1` [compound 21]: the IC50 runs as follows: under setting [1], 50 to 1000 nM; under setting [2], 575 nM.
With `Cc1cc(-c2cc(Cl)ccc2OCCn2c(C)nc3cnc(N4CC(N(C)C)C4)c(C#N)c3c2=O)c2sc(C)c(C(=O)O)c2n1` [compound 1091], the IC50 under setting [1] was 50 to 1000 nM and the IC50 under setting [2] was 91.4 nM.
Regarding `Cc1cc(-c2nc(C)c3nc(C)n(CCOc4ccc(Cl)cc4-c4cc(C)nc5c(C(=O)O)csc45)c(=O)c3c2C#N)ccn1` [compound 911], the IC50 under setting [1] was below 50 nM and the IC50 under setting [2] is 17.1 nM.
As to `Cc1cccc(-c2c(C(F)(F)F)cc3nc(C)n(CCOc4ccc(Cl)cc4-c4cccc(C(=O)O)c4)c(=O)c3c2C#N)n1` [compound 375], the IC50 was 50 to 1000 nM under setting [1] and 58 nM under setting [2].
For `Cc1nc2cc(Cl)c(C(F)F)c(C#N)c2c(=O)n1CCOc1ccc(Cl)cc1-c1ccnc2c(C(=O)O)csc12` [compound 1951], the IC50 under setting [3] was 19.9 nM.
Take `Cc1ccc(S(=O)(=O)NC(=O)c2csc3c(-c4cc(Cl)ccc4C#CCn4c(C)nc5cnc(N(C)C6CCN(CC(C)(F)F)CC6)c(C#N)c5c4=O)ccnc23)cn1` [compound 1680]: the IC50 under setting [3] was 23.3 nM.
For `Cc1nc2cnc(N(C)C3CCN(CC4(CF)CCC4)CC3)c(C#N)c2c(=O)n1CC#Cc1ccc(Cl)cc1-c1ccnc2c(C(=O)O)csc12` [compound 1584], under setting [3], the IC50 was 36.9 nM.
Consider `Cc1nc2ccc(Cl)c(C#N)c2c(=O)n1CCOc1ccc(Cl)cc1-c1ccnc2c(C(=O)O)csc12` [compound 244], for which the IC50 is, setting by setting: under setting [1], below 50 nM; under setting [2], 31.2 nM.
With `Cc1cc(-c2cc(Cl)ccc2OCCn2c(C)cc3cnc(-c4cc(F)cnc4C)c(C#N)c3c2=O)c2scc(C(=O)O)c2n1` [compound 1001], the IC50 by setting is: under setting [1], below 50 nM; under setting [2], 31.2 nM.
On to `CCc1cc(-c2cc(Cl)ccc2OCCn2c(C)nc3cc(C(F)(F)F)c(N4CCN(C)CC4)c(C#N)c3c2=O)cc(C(=O)O)n1` [compound 1223], for which the IC50 under setting [1] was below 50 nM and the IC50 under setting [3] is 2.79 nM.
For the compound `Cc1cc(-c2cc(Cl)ccc2OCCn2c(C)nc3cc4c(c(C#N)c3c2=O)CCN(C)C4)c2scc(C(=O)O)c2n1` [compound 335], the IC50 under setting [1] was 50 to 1000 nM.
As to `Cc1nc2cnc(N3CCC4(CC3)CN(CC(F)F)C4)c(C#N)c2c(=O)n1CC#Cc1ccc(Cl)cc1-c1ccnc2c(C(=O)NS(=O)(=O)C3COC3)csc12` [compound 1408], the IC50 under setting [3] was 17.6 nM.
